Earlier results as cited in PMC9311059, “P‐Glycoprotein and Breast Cancer Resistance Protein Transporter Inhibition by Cyclosporine and Quinidine on the Pharmacokinetics of Oral Rimegepant in Healthy Subjects” (Clinical Pharmacology in Drug Development, 2022).

Details: oral midazolam coadministered with cyclosporine; cited from earlier work

Cc1ncc2n1-c1ccc(Cl)cc1C(c1ccccc1F)=NC2 [midazolam]
change in midazolam Cmax: no meaningful change | increase in midazolam AUC: 46%
